# Measurements published in US20190231785A1, “PHOSPHODIESTERASE INHIBITOR TREATMENT” (Cyrano Therapeutics, Inc., priority 2012, published 2019).
# Marks after values point to notes of the source that are not given here.
# Assays:
# [1] = tested on: cGMP; experiment: Parotid saliva cGMP before and after oral theophylline (Example 2); format: in vivo, human; details: mean ± SEM
# Description: Parotid saliva was collected from each patient by application of a Lashley cup over Stensen's duct with lingual stimulation by placement of concentrated lemon juice. Saliva was collected in plastic tubes and stored at −20° C. until assayed. cAMP and cGMP were measured in saliva by a sensitive 96 plate spectrophotometric assay (R&D Systems, Minneapolis, Minn.).
# (§1) All patients were placed in a fixed design open label clinical trial with treatment with oral theophylline. Treatment consisted of fixed treatment periods of two-eight months with sequential doses of the drug at 200 mg, 400 mg and 600 mg. At termination of each of these intervals, patients returned to study site for reevaluation. At the end of each interval subjective responses to treatment were measured with a modification of the 0-100 scale previously used (vs). Subjective responses to treatment were graded on a sliding scale from −100-0-+100 with patients recording improvement (+0-+100), no improvement (0) or worsening (0-−100) of their overall smell function. If overall smell function improved ≥5% they were considered to improve clinically (1). If smell function improved <5% they were considered not to improve (1). At the end of each interval subjective measurements of smell function, measurements of DT, RT, ME and H and measurements of parotid saliva for levels of cAMP and cGMP were obtained. In addition, blood plasma was obtained by venipuncture, placed in ice into zinc free tubes which contained 100 mg zinc free heparin, centrifuged at 3000 rpm for 10-20 min, the plasma transferred to plastic PCR tubes and stored at −20° C. until assayed. Theophylline was assayed by a fluorescence polarization assay (Abbott, Chicago, Ill.), as previously described.
# (§2) Data for the cyclic nucleotides from these 31 patients was not analyzed until the entire study of the 312 patients in Example 1 was assembled and analyzed in its entirety. After completion of these analyses, all data for parotid saliva cAMP and cGMP from all patients in whom salivary cAMP and cGMP were obtained were assembled. Levels of salivary cyclic nucleotides varied widely. Initially, without external criteria, there was no way to understand these disparate data. […] In a similar manner, measurements of each patient's plasma theophylline level at each dosage of theophylline (at 200 mg, 400 mg, 600 mg of theophylline) were categorized. The two patient groups were also analyzed post hoc with respect to type of smell loss and etiology of smell loss.
# [2] = tested on: asthmatic patients; experiment: sGaw after dry powder inhalation, dose escalating single blind study (Examples 5 and 6); details: 2 mg theophylline
# Description: (§3) To test this theory, asthmatic patients are enrolled in a dose escalating single blind study. On arrival to the clinic, subjects are allowed to rest for 20 minutes before baseline measurements of FEV1 (six recordings) and sGaw (five recordings) are made. Subjects receive a dry powder dispenser loaded with a dose of 2 mg theophylline or a dry powder carrier. […] After each inhalation, measurements of sGaw are made at 1, 3, 5, 10, 15, 20, 25, and 30 minutes.
# On completion of the last recording, subjects inhale a 200 μg dose of salbutamol from a metered inhaler and a further measurement of sGaw is made after 15 minutes. Subjects are also monitored for coughing and are questioned about the taste of the drug.
# as §3, with “Asthmatic patients” for “To test this theory, asthmatic patients”, “of 1” for “of 2”, “mg IBMX formulated as a dry powder” for “mg theophylline”
# On completion of the last recording, subjects inhale a 200 μg dose of salbutamol from a metered inhaler and a further measurement of sGaw mad after 15 minutes. Subjects are also be monitored for coughing and are questioned about the taste of the drug.
# [3] = tested on: patients with hyposmia; experiment: Classification of patients as improved or unimproved on theophylline (Example 2); format: in vivo, human
# Description: as §1, §2
# Differences in the characteristics between these two patient groups were analyzed with respect to each measurement obtained (Mean±SEM). Differences between mean±SEM were analyzed using Student t test and X2; differences of p≤5% were considered significant.
# [4] = of 31 patients on oral theophylline 200-600 mg
smiles,measurement,setting,value
Cn1c(=O)c2[nH]cnc2n(C)c1=O [theophylline],parotid saliva cGMP,"[1]; patients with improved smell function, oral 200 mg (15 patients)",0.08 ± 0.016 pmol/mL
same,parotid saliva cGMP,"[1]; patients with unimproved smell function, oral 200 mg (9 patients)",0.07 ± 0.018 pmol/mL
same,parotid saliva cGMP,"[1]; patients with unimproved smell function, oral 400 mg (4 patients)",0.05 ± 0.014 pmol/mL
same,parotid saliva cGMP,"[1]; patients with unimproved smell function, oral 600 mg (5 patients)",0.04 ± 0.07 pmol/mL
same,increase in sGaw compared with 200 μg salbutamol,[2],comparable to that produced by salbutamol
same,sGaw above the baseline measurement after 30 minutes,[2],20%
same,taste and coughing of the dry powder formulation,[2],without the unpleasant taste or the induction of coughing
same,time until sGaw baseline is reached,[2],1 h
same,patients identified as having improved smell function,[3]; [4],20 patients
same,patients who did not improve,[3]; [4],11 patients
same,improved patients exhibiting Type II hyposmia,"[3]; oral theophylline, Example 2",95%
same,"patient number, improved, etiology PIHH","[3]; oral theophylline, Example 2",6
same,"patient number, improved, etiology allergic rhinitis (AR)","[3]; oral theophylline, Example 2",8
same,"patient number, improved, etiology head injury (HI)","[3]; oral theophylline, Example 2",3
same,"patient number, improved, etiology other","[3]; oral theophylline, Example 2",3
same,"patient number, improved, smell loss Type I","[3]; oral theophylline, Example 2",1
same,"patient number, improved, smell loss Type II","[3]; oral theophylline, Example 2",19^a
same,"patient number, unimproved, etiology PIHH","[3]; oral theophylline, Example 2",0
same,"patient number, unimproved, etiology allergic rhinitis (AR)","[3]; oral theophylline, Example 2",8
same,"patient number, unimproved, etiology head injury (HI)","[3]; oral theophylline, Example 2",3
same,"patient number, unimproved, etiology other","[3]; oral theophylline, Example 2",0
same,"patient number, unimproved, smell loss Type I","[3]; oral theophylline, Example 2",4
same,"patient number, unimproved, smell loss Type II","[3]; oral theophylline, Example 2",7
same,unimproved patients exhibiting Type I hyposmia,"[3]; oral theophylline, Example 2",57%
